Reference: patent US20250339551A1, “AN ANTIBODY-DRUG CONJUGATE HAVING TWO OR MORE DIFFERENT FUNCTIONAL SMALL MOLECULES FOR ENHANCED TREATMENT OF REFRACTORY DISEASES” (HANGZHOU SEEHE BIOTECHNOLOGY CO., LTD, priority 2023, published 2025)

Experiments:
C4-2B cell line = assay type: cell-based; conditions: 120 hours incubation, MTT, n = DAR given with each label
Excerpt: The cell lines used in the cytotoxicity assays were: C4-2B Cells which was obtained from ATCC through license agreement with MD Anderson Cancer Center, Houston, TX, USA. 22RV1, A549, U87, NCI-N87, MKN-7, BxPC-3, JIMT-1, MDA-MB-231, SU86.86, SW1990, OVCAR-3, Calu-3, A431, AsPC-1, CFPAC-1, DMS53, HCC827 and NCI-H1975 cells were purchased from ATCC, Nanjing Cobioer and The Cell Bank of Shanghai Institute of Biochemistry and Cell Biology, and the others. C4-2B and PC-3-4H7 are both Steap1 and PSMA antigen high express cells, but medium expressed of both B7H3 and DLL3 antigens. 22RV1 is low express cells for Steap1, PSMA, B7H3 and DLL3 antigens. U87 is glioblastoma (GBM) cells, NCI-N87 and MKN-7 cell line are stable models of the gastric epithelium. A431 is human epidermoid carcinoma. JIM-1 is trastuzumab-resistant Her2 breast tumor cells. SU86.86, SW1990, CFPAC-1 and AsPC-1 are pancreatic cancer cell lines. OVCAR-3 is ovarian cancer cell lines. Calu-3, HCC827 and NCI-H1975 are a human lung adenocarcinoma. All these cells were grown according to the provider manuals. To run the assay, the cells (180 μl, 6000 cells) were added to each well in a 96-well plate and incubated for 24 hours at 37° C. with 5% CO2. Next, the cells were treated with test compounds (20 μl) at various concentrations in appropriate cell culture medium (total volume, 0.2 mL). The control wells contain cells and the medium but lack the test compounds. The plates were incubated for 120 hours at 37° C. with 5% CO2. MTT (5 mg/mL) was then added to the wells (20 μl) and the plates were incubated for 1.5 hr at 37° C. The medium was carefully removed and DMSO (180 μl) was added afterward. After it was shaken for 15 min, the absorbance was measured at 490 nm and 570 nm with a reference filter of 620 nm. The inhibition % was calculated according to the following equation: […]

[1] = test system: GUCY2C-9C9 colon cancer cells; experiment: in vivo activity of anti GUCY2C ADCs (FIG. 15); conditions: anti GUCY2C antibody drug conjugates, DAR=4.0˜4.2, one time administration, 3.0 mg/Kg, over 20 days, compared with anti GUCY2C antibody-GGFG-Dxd
PC-3-4B9 cells = experiment: affinities against PC-3-4B9 cells (FIG. 8); assay type: binding; conditions: PC-3-4B9 only express highly PSMA antigens
PC-3-4G5 cells = experiment: affinities against PC-3-4G5 cells (FIG. 9); assay type: binding; conditions: PC-3-4G5 only express highly Steap1 antigens
Excerpt: Since PC-3-4G5 only express highly Steap1 antigens, thus both prepared vandortuzumab and the vandortuzumab-C002 had the good affinity for PC-3-4G5 cells.

PC-3 cells = experiment: affinities against nature PC-3 cells (FIG. 10); assay type: binding; conditions: PC-3 cells do not have either Steap1 or PSMA antigens
C4-2B cells = experiment: affinities against C4-2B cells (FIG. 7); assay type: binding; conditions: C4-2B cells highly express both Steap1 and PSMA antigens

In the case of `CCc1c2c(nc3cc(F)c(NC(=O)CNC(=O)[C@H](C)NC(=O)[C@@H](NC(=O)[C@H](CCC(=O)NCCOCCOCCNC(=O)c4ccc(C(=O)NCCCCC(=O)NCCCC[C@H](NC(=O)N[C@@H](CCC(=O)O)C(=O)O)C(=O)O)cc4)NC(=O)CCCN4C(=O)CC(S)C4=O)C(C)C)cc13)-c1cc3c(c(=O)n1C2)COC(=O)[C@]3(O)CC` (stereo partly drawn) [C040], the IC50 (C4-2B cell line) is reported as 4.27 nM.

With `CC[C@@]1(O)C(=O)OCc2c1cc1n(c2=O)Cc2c-1nc1cc(F)c(C)c3c1c2[C@@H](NC(=O)OCC[N+](C)(C)Cc1ccc(NC(=O)[C@H](C)NC(=O)[C@@H](NC(=O)[C@H](CCC(=O)NCCOCCOCCNC(=O)c2ccc(C(=O)NCCCCC(=O)NCCCC[C@H](NC(=O)N[C@@H](CCC(=O)O)C(=O)O)C(=O)O)cc2)NC(=O)CCCN2C(=O)CC(S)C2=O)C(C)C)cc1)CC3` (stereo partly drawn) [C044] the IC50 (C4-2B cell line) was 7.87 nM.

`CC[C@@]1(O)C(=O)OCc2c1cc1n(c2=O)Cc2c-1nc1cc(F)c(C)c3c1c2[C@@H](NC(=O)OCC[N+](C)(C)Cc1ccc(NC(=O)[C@H](C)NC(=O)[C@@H](NC(=O)[C@H](CCC(=O)N(CCNC(=O)CCOCCOCCNC(=O)c2ccc(C(=O)NCCCCC(=O)NCCCC[C@H](NC(=O)N[C@@H](CCC(=O)O)C(=O)O)C(=O)O)cc2)CCNC(=O)CCOCCOCCNC(=O)c2ccc(C(=O)NCCCCC(=O)NCCCC[C@H](NC(=O)N[C@@H](CCC(=O)O)C(=O)O)C(=O)O)cc2)NC(=O)CCCN2C(=O)CC(S)C2=O)C(C)C)cc1)CC3` (stereo partly drawn) [C045] showed an IC50 (C4-2B cell line) of 6.76 nM.

In the case of `CC[C@@]1(O)C(=O)OCc2c1cc1n(c2=O)Cc2c-1nc1cc(F)c(C)c3c1c2[C@@H](NC(=O)[C@H](C)NC(=O)[C@@H](NC(=O)[C@H](CCC(=O)NCCOCCOCCNC(=O)c1ccc(C(=O)NCCCCC(=O)NCCCC[C@H](NC(=O)N[C@@H](CCC(=O)O)C(=O)O)C(=O)O)cc1)NC(=O)C1CCN(C(=O)CS)CC1)C(C)C)CC3` [C060], the IC50 (C4-2B cell line) is reported as 7.57 nM.

For `CC[C@@]1(O)C(=O)OCc2c1cc1n(c2=O)Cc2c-1nc1cc(F)c(C)c3c1c2[C@@H](NC(=O)OCc1ccc(NC(=O)[C@H](C)NC(=O)[C@@H](NC(=O)[C@H](CCC(=O)N[C@H](C(=O)N[C@@H](C)C(=O)NC(=O)[C@H](CCC(=O)NC(c2ccccc2)(c2ccccc2)c2ccccc2)NC(=O)[C@@H]2CCCN2C(=O)[C@@H]2CCCN2C(=O)[C@H](CCCNC(=N)NC(c2ccccc2)(c2ccccc2)c2ccccc2)NC(=O)[C@H](CCCNC(=N)NC(c2ccccc2)(c2ccccc2)c2ccccc2)NC(=O)[C@H](CCCNC(=N)NC(c2ccccc2)(c2ccccc2)c2ccccc2)NC(=O)[C@H](CCC(=O)NC(c2ccccc2)(c2ccccc2)c2ccccc2)NC(=O)[C@H](CCCNC(=N)NC(c2ccccc2)(c2ccccc2)c2ccccc2)NC(=O)[C@H](CCCNC(=N)NC(c2ccccc2)(c2ccccc2)c2ccccc2)NC(=O)[C@H](CCCCNC(=O)OC(C)(C)C)NC(=O)[C@H](CCCCNC(=O)OC(C)(C)C)NC(=O)[C@H](CCCNC(=N)NC(c2ccccc2)(c2ccccc2)c2ccccc2)NC(=O)CNC(=O)OCC2c4ccccc4-c4ccccc42)C(C)C)NC(=O)CCCNC(=O)[C@H](CCCCNC(=O)COCCOCCOCCOCCOCCOCCOCCOCCOCCOC)NC(=O)CCCN2C(=O)C=CC2=O)C(C)C)cc1C(=O)NCCOCCOCCOCCOCCOCCOCCOCCOC)CC3` [compound 570], the “in vivo antitumor activity over time” value [1] was “better antitumor activity than the regular GGFG-Dxd conjugate”.

B1: vandortuzumab-C002 (conjugate, chains of the INN, looked up)
VH: EVQLVESGGGLVQPGGSLRLSCAVSGYSITSDYAWNWVRQAPGKGLEWVGYISNSGSTSYNPSLKSRFTISRDTSKNTLYLQMNSLRAEDTAVYYCARERNYDYDDYYYAMDYWGQGTLVTVSS
VL: DIQMTQSPSSLSASVGDRVTITCKSSQSLLYRSNQKNYLAWYQQKPGKAPKLLIYWASTRESGVPSRFSGSGSGTDFTLTISSLQPEDFATYYCQQYYNYPRTFGQGTKVEIK
modifications: drug conjugate C002
With B1 the “affinity against PC-3-4B9 cells” value (PC-3-4B9 cells) was “had the affinity”, the “affinity against PC-3-4G5 cells” value (PC-3-4G5 cells) was “good affinity” and the “affinity against nature PC-3 cells” value (PC-3 cells) was “not able to show the affinity at all”. For the same molecule, the “affinity against C4-2B cells” value (C4-2B cells) was “better affinity for the C4-2B cells than the naked (unconjugated) antibodies”.
